Measured values from ChEMBL document CHEMBL2346578, “Substituted 1,6-diphenylnaphthalenes as FtsZ-targeting antibacterial agents” (2013).
≈ marks a conversion by molar mass, not a printed value. Calls of active or inactive are those of the source. The rule behind the calls is not given here.

Key:
Enterococcus faecalis [1] = assay: Antibacterial activity against vancomycin-resistant Enterococcus faecalis ATCC 51575 assessed as growth inhibition by CLSI broth microdilution method; type: functional
Enterococcus faecalis [2] = assay: microbe, parasite or virus in culture; type: functional; conditions: ATCC 19433
Description: Antibacterial activity against vancomycin-sensitive Enterococcus faecalis ATCC 19433 assessed as growth inhibition by CLSI broth microdilution method

Staphylococcus aureus [3] = assay: microbe, parasite or virus in culture; type: functional; conditions: ATCC 33591
Description: Antibacterial activity against methicillin-resistant Staphylococcus aureus ATCC 33591 assessed as growth inhibition by CLSI broth microdilution method

Staphylococcus aureus [4] = assay: Antibacterial activity against methicillin-sensitive Staphylococcus aureus 8325-4 assessed as growth inhibition by CLSI broth microdilution method; type: functional
[5] = molecular target: Tubulin beta chain (Sus scrofa) (UniProt P02554); assay: Stimulation of porcine MAP-rich beta-tubulin polymerization at 40 ug/mL by light scattering assay
Chain of Tubulin beta chain (Sus scrofa) (P02554 whole entry): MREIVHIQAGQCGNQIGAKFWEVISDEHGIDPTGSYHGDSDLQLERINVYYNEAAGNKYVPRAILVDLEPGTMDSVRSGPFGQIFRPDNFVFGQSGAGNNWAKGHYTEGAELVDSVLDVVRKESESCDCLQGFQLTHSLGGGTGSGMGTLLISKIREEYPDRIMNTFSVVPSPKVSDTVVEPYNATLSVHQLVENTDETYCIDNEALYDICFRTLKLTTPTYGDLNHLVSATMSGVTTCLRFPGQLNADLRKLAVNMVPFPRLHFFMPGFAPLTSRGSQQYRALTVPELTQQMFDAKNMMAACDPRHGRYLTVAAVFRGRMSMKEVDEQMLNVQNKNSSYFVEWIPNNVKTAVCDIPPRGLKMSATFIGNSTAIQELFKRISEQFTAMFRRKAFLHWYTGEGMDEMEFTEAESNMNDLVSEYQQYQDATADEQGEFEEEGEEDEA

[6] = molecular target: T1, Cell division protein FtsZ (Staphylococcus aureus) (UniProt P0A031); assay: Stimulation of Staphylococcus aureus ATCC 33591 FtsZ self-polymerization expressed in Escherichia coli BL21 (DE3) at 40 ug/mL by light scattering assay
T1 sequence (whole entry): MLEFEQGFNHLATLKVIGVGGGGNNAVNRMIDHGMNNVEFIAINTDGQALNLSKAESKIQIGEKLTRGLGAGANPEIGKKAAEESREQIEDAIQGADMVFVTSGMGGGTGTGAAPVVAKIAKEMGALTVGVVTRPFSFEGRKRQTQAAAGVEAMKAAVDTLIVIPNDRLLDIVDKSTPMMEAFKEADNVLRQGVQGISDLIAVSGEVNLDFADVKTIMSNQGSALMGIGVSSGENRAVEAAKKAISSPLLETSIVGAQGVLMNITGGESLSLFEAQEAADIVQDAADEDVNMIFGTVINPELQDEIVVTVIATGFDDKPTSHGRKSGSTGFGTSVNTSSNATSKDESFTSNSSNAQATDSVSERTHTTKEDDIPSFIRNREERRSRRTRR

[7] = molecular target: Tubulin beta chain (Sus scrofa) (UniProt P02554); assay: Inhibition of porcine MAP-rich beta-tubulin polymerization at 10 ug/mL by light scattering assay
[8] = molecular target: Tubulin beta chain (Sus scrofa) (UniProt P02554); assay: Stimulation of porcine MAP-rich beta-tubulin polymerization at 25 ug/mL by light scattering assay

| Compound | MIC90 (Enterococcus faecalis [1]) | MIC90 (Enterococcus faecalis [2]) | MIC90 (Staphylococcus aureus [3]) | MIC90 (Staphylococcus aureus [4]) | Activity [5] | Activity [6] | inhibition [7] | Activity [8] |
| --- | --- | --- | --- | --- | --- | --- | --- | --- |
| COC(=O)c1ccc(-c2ccc3c(-c4ccc(C(C)(C)C)cc4)cccc3c2)c(CN=C(N)N)c1 | 4 µg/mL (≈ 8.59 µM) | 2 µg/mL (≈ 4.3 µM) | 1 µg/mL (≈ 2.15 µM) | 1 µg/mL (≈ 2.15 µM) |  |  |  |  |
| CC[C@H]1OC(=O)[C@H](C)[C@@H](O[C@H]2C[C@@](C)(OC)[C@@H](O)[C@H](C)O2)[C@H](C)[C@@H](O[C@@H]2O[C@H](C)C[C@H](N(C)C)[C@H]2O)[C@](C)(O)C[C@@H](C)C(=O)[C@H](C)[C@@H](O)[C@]1(C)O [ERYTHROMYCIN] | > 64 µg/mL | 1 µg/mL (≈ 1.36 µM) | > 64 µg/mL | 0.13 µg/mL (≈ 0.177 µM) |  |  |  |  |
| C[n+]1cc2c3c(ccc2c2ccc4cc5c(cc4c21)OCO5)OCO3 [SANGUINARIUM] | 16 µg/mL | 8 µg/mL | 2 µg/mL | 2 µg/mL |  |  |  |  |
| CN(C)Cc1cccc(-c2ccc3c(-c4cccc(-c5ccccc5)c4)cccc3c2)c1 | 16 µg/mL (≈ 38.7 µM) | 16 µg/mL (≈ 38.7 µM) | 8 µg/mL (≈ 19.3 µM) | 4 µg/mL (≈ 9.67 µM) |  |  |  |  |
| CC(C)(C)c1ccc(-c2cccc3cc(-c4cccc(N)c4)ccc23)cc1 | > 64 µg/mL | > 64 µg/mL | > 64 µg/mL | > 64 µg/mL |  |  |  |  |
| CC(C)(C)c1ccc(-c2cccc3cc(-c4ccccc4C[N+](C)(C)C)ccc23)cc1.[I-] | 4 µg/mL | 4 µg/mL | 0.5 µg/mL | 0.5 µg/mL | inactive | Active |  |  |
| COC(=O)Nc1nc2cc(C(=O)c3cccs3)ccc2[nH]1 |  |  |  |  |  |  | Active |  |
| COC(=O)c1ccc(-c2ccc3c(-c4ccc(C(C)(C)C)cc4)cccc3c2)c(C[N+](C)(C)C)c1.[I-] | 8 µg/mL | 4 µg/mL | 2 µg/mL | 1 µg/mL |  |  |  |  |
| CC(=O)O[C@H]1C(=O)[C@@]2(C)[C@H]([C@H](OC(=O)c3ccccc3)[C@]3(O)C[C@H](OC(=O)[C@H](O)[C@@H](NC(=O)c4ccccc4)c4ccccc4)C(C)=C1C3(C)C)[C@]1(OC(C)=O)CO[C@@H]1C[C@@H]2O |  |  |  |  |  |  |  | Active |
| C[N+](C)(C)Cc1cccc(-c2ccc3c(-c4cccc(-c5ccccc5)c4)cccc3c2)c1.[I-] | 4 µg/mL | 4 µg/mL | 1 µg/mL | 0.5 µg/mL |  |  |  |  |
| C[N+](C)(C)c1ccc(-c2ccc3c(-c4ccc(F)cc4)cccc3c2)cc1.[I-] | 4 µg/mL | 4 µg/mL | 4 µg/mL | 4 µg/mL |  |  |  |  |
| C[N+](C)(C)c1cccc(-c2ccc3c(-c4ccc(F)cc4)cccc3c2)c1.[I-] | 8 µg/mL | 8 µg/mL | 4 µg/mL | 1 µg/mL |  |  |  |  |
| C[N+](C)(C)c1cccc(-c2ccc3c(-c4ccc(C(F)(F)F)cc4)cccc3c2)c1.[I-] | 8 µg/mL | 8 µg/mL | 4 µg/mL | 1 µg/mL |  |  |  |  |
| CCC[C@@H]1C[C@@H](C(=O)N[C@@H]([C@H]2O[C@H](SC)[C@H](O)[C@@H](O)[C@H]2O)[C@H](C)Cl)N(C)C1 [CLINDAMYCIN] | > 64 µg/mL | 2 µg/mL (≈ 4.71 µM) | > 64 µg/mL | 0.031 µg/mL (≈ 0.0729 µM) |  |  |  |  |
| COC(=O)c1ccc(-c2ccc3c(-c4ccc(C(C)(C)C)cc4)cccc3c2)c(CN(C)C)c1 | > 64 µg/mL | > 64 µg/mL | > 64 µg/mL | > 64 µg/mL |  |  |  |  |
| Cc1onc(-c2ccccc2)c1C(=O)N[C@@H]1C(=O)N2[C@@H]1SC(C)(C)[C@@H]2C(=O)O [OXACILLIN] | > 64 µg/mL | 8 µg/mL (≈ 19.9 µM) | > 64 µg/mL | 0.063 µg/mL (≈ 0.157 µM) |  |  |  |  |
| C[N+](C)(C)c1ccc(-c2ccc3c(-c4cccc(-c5ccccc5)c4)cccc3c2)cc1.[I-] | 2 µg/mL | 2 µg/mL | 1 µg/mL | 1 µg/mL |  |  |  |  |
| CC(C)(C)c1ccc(-c2cccc3cc(-c4cccc([N+](C)(C)C)c4)ccc23)cc1.[I-] | 2 µg/mL | 2 µg/mL | 1 µg/mL | 0.5 µg/mL |  |  |  |  |

| Compound | MIC90 (Enterococcus faecalis [1]) | MIC90 (Enterococcus faecalis [2]) | MIC90 (Staphylococcus aureus [3]) | MIC90 (Staphylococcus aureus [4]) | Activity [5] | Activity [6] | inhibition [7] | Activity [8] |
| --- | --- | --- | --- | --- | --- | --- | --- | --- |
| C[N+](C)(C)c1cccc(-c2ccc3c(-c4cccc(-c5ccccc5)c4)cccc3c2)c1.[I-] | 2 µg/mL | 2 µg/mL | 1 µg/mL | 1 µg/mL |  |  |  |  |
| CC(C)(C)c1ccc(-c2cccc3cc(-c4ccccc4N)ccc23)cc1 | > 64 µg/mL | > 64 µg/mL | > 64 µg/mL | > 64 µg/mL |  |  |  |  |
| C[N+](C)(C)c1cccc(-c2ccc3c(-c4ccc(-c5ccccc5)cc4)cccc3c2)c1.[I-] | 4 µg/mL | 2 µg/mL | 1 µg/mL | 0.5 µg/mL |  |  |  |  |
| CN(C)Cc1ccccc1-c1ccc2c(-c3ccc(C(C)(C)C)cc3)cccc2c1 | > 64 µg/mL | > 64 µg/mL | > 64 µg/mL | 32 µg/mL (≈ 81.3 µM) |  |  |  |  |
| CNCc1cc(C(=O)OC)ccc1-c1ccc2c(-c3ccc(C(C)(C)C)cc3)cccc2c1 | 4 µg/mL (≈ 9.14 µM) | 8 µg/mL (≈ 18.3 µM) | 4 µg/mL (≈ 9.14 µM) | 4 µg/mL (≈ 9.14 µM) |  |  |  |  |
| CN[C@H](CC(C)C)C(=O)N[C@H]1C(=O)N[C@@H](CC(N)=O)C(=O)N[C@H]2C(=O)N[C@H]3C(=O)N[C@H](C(=O)N[C@H](C(=O)O)c4cc(O)cc(O)c4-c4cc3ccc4O)[C@H](O)c3ccc(c(Cl)c3)Oc3cc2cc(c3O[C@@H]2O[C@H](CO)[C@@H](O)[C@H](O)[C@H]2O[C@H]2C[C@](C)(N)[C@H](O)[C@H](C)O2)Oc2ccc(cc2Cl)[C@H]1O [VANCOMYCIN] | > 64 µg/mL | 1 µg/mL (≈ 0.69 µM) | 2 µg/mL (≈ 1.38 µM) | 1 µg/mL (≈ 0.69 µM) |  | inactive |  |  |
| CC(C)(C)c1ccc(-c2cccc3cc(-c4ccccc4CCN)ccc23)cc1 | 4 µg/mL (≈ 10.5 µM) | 4 µg/mL (≈ 10.5 µM) | 2 µg/mL (≈ 5.27 µM) | 2 µg/mL (≈ 5.27 µM) |  | Active |  |  |
| NCc1cccc(-c2ccc3c(-c4cccc(-c5ccccc5)c4)cccc3c2)c1 | 8 µg/mL (≈ 20.8 µM) | 4 µg/mL (≈ 10.4 µM) | 4 µg/mL (≈ 10.4 µM) | 2 µg/mL (≈ 5.19 µM) |  |  |  |  |
| COC(=O)c1ccc(-c2ccc3c(-c4ccc(C(C)(C)C)cc4)cccc3c2)c(CN)c1 | 16 µg/mL (≈ 37.8 µM) | 16 µg/mL (≈ 37.8 µM) | 2 µg/mL (≈ 4.72 µM) | 2 µg/mL (≈ 4.72 µM) |  |  |  |  |
| CNCc1ccccc1-c1ccc2c(-c3ccc(C(C)(C)C)cc3)cccc2c1 | 2 µg/mL (≈ 5.27 µM) | 2 µg/mL (≈ 5.27 µM) | 2 µg/mL (≈ 5.27 µM) | 2 µg/mL (≈ 5.27 µM) |  |  |  |  |
| C[N+](C)(C)c1ccc(-c2ccc3c(-c4ccc(-c5ccccc5)cc4)cccc3c2)cc1.[I-] | 2 µg/mL | 2 µg/mL | 1 µg/mL | 1 µg/mL |  |  |  |  |
| CC(C)(C)c1ccc(-c2cccc3cc(-c4ccc([N+](C)(C)C)cc4)ccc23)cc1.[I-] | 4 µg/mL | 4 µg/mL | 2 µg/mL | 1 µg/mL |  |  |  |  |
| COc1ccc2c(c[n+](C)c3c4cc5c(cc4ccc23)OCO5)c1OC [CHELERYTHRINE] | 32 µg/mL | 32 µg/mL | 4 µg/mL | 4 µg/mL |  |  |  |  |
| CC(C)(C)c1ccc(-c2cccc3cc(-c4ccc(C(=O)O)cc4CN)ccc23)cc1 | > 64 µg/mL | > 64 µg/mL | > 64 µg/mL | > 64 µg/mL |  |  |  |  |
| Cc1ccccc1-c1ccc2c(-c3ccc(C(C)(C)C)cc3)cccc2c1 | > 64 µg/mL | > 64 µg/mL | > 64 µg/mL | > 64 µg/mL |  |  |  |  |
| CN(C)[C@@H]1C(O)=C(C(N)=O)C(=O)[C@@]2(O)C(O)=C3C(=O)c4c(O)cccc4[C@@](C)(O)[C@H]3C[C@@H]12 [TETRACYCLINE] | > 64 µg/mL | 0.5 µg/mL (≈ 1.13 µM) | 64 µg/mL (≈ 144 µM) | 0.063 µg/mL (≈ 0.142 µM) |  |  |  |  |
| CC(C)(C)c1ccc(-c2cccc3cc(-c4ccccc4CN=C(N)N)ccc23)cc1 | 2 µg/mL (≈ 4.91 µM) | 2 µg/mL (≈ 4.91 µM) | 1 µg/mL (≈ 2.45 µM) | 1 µg/mL (≈ 2.45 µM) |  |  |  |  |
